Reference: patent US20160068466A1, “ESTER DERIVATIVES OF ANDROGEN RECEPTOR MODULATORS AND METHODS FOR THEIR USE” (The University of British Columbia, priority 2013, published 2016)
Like-named read-outs stand apart in the source and are kept apart here.

Experiments:
[1] = molecular target: T1, androgen receptor (Homo sapiens, UniProt P10275, T878A); test: PSA(6.1 kb)-luciferase reporter assay in LNCaP cells induced with R1881; type: cell-based
T1 construct: LNCaP cells express endogenous AR; endogenous in cells; host or cells: LNCaP
T1 sequence (P10275 1-920 T878A): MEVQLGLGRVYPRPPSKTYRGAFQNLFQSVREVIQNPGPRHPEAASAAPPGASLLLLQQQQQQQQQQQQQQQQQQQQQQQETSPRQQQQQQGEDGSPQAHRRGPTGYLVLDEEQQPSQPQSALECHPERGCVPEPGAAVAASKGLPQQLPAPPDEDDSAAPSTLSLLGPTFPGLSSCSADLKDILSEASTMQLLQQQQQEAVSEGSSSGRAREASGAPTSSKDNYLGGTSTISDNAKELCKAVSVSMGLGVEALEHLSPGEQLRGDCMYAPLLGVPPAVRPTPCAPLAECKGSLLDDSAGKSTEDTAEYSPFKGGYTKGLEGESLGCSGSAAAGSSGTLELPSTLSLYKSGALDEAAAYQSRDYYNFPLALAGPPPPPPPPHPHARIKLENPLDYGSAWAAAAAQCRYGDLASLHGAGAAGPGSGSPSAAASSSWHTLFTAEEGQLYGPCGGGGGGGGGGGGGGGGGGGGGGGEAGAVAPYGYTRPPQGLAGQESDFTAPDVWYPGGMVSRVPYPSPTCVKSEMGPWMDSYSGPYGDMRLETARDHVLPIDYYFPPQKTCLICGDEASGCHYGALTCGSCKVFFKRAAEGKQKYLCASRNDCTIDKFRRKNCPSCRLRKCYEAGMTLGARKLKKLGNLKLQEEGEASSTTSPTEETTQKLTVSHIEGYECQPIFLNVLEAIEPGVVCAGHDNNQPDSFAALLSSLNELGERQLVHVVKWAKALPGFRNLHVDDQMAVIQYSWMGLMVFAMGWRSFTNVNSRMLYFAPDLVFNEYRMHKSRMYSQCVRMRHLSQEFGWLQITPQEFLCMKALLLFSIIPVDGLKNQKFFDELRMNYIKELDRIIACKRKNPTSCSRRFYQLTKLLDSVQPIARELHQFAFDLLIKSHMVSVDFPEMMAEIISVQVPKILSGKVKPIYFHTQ
Source text: LNCaP cells were employed for experiments because they are well-differentiated human prostate cancer cells in which ligand-dependent and ligand-independent activation of AR by FSK has been characterized (Nazareth et al 1996 J. Biol. Chem. 271, 19900-19907; and Sadar 1999 J Biol. Chem. 274, 7777-7783). LNCaP cells express endogenous AR and secrete prostate-specific antigen (PSA) (Horoszewicz et al 1983 Cancer Res. 43, 1809-1818). LNCaP cells can be grown either as monolayers in cell culture or as tumors in the well-characterized xenograft model that progresses to castration-resistant prostate cancer (CRPC) in castrated hosts (Sato et al 1996 J. Steroid Biochem. Mol. Biol. 58, 139-146; Gleave et al 1991 Cancer Res. 51, 3753-3761; Sato et al 1997 Cancer Res. 57, 1584-1589; and Sadar et al 2002 Mol. Cancer Ther. 1(8), 629-637). R1881 (a synthetic androgen) is employed since it is stable and avoids problems associated with the labile physiological ligand dihydrotestosterone (DHT).
One well characterized ARE-driven reporter gene construct that has been used extensively is the PSA (6.1 kb) enhance/promoter which contains several AREs and is highly inducible by androgens as well as by FSK (Ueda et al 2002 A J. Biol. Chem. 277, 7076-7085).
LNCaP (2.4×10^4 cell/well) cells were seeded on 24-well plates overnight before transfection with PSA(6.1 kb)-luciferase plasmid (0.25 ug/well) in serum-free, red phenol-free media. The next day, cells were pre-treated with compounds of the disclosure for 1 hour before the addition of synthetic androgen, R1881 (1 nM) to trans activate the androgen receptor. After 48 h of incubation with R1881, the cells were harvested, and relative luciferase activity was determined as a read-out for androgen receptor transcriptional activity. Test compounds were added to the cells at various concentrations and activity for each treatment was normalized to the predicted maximal activity induction (in the absence of test compounds, vehicle only). Transfection experiments were performed using triplicate wells.
Further experiments, as outlined in Example 22, were conducted with LNCaP cells transfected with PSA-luciferase plasmid to evaluate the dose response of particular compounds of the disclosure.

[2] = test system: LNCaP cells; test: AlamarBlue proliferation assay, androgen-dependent proliferation of LNCaP cells in response to R1881; type: cell-based, human; conditions: 0.1 nM R1881, 3 days, FIG. 10
Description: Protocol: Proliferation assays using AlamarBlue, wherein the % androgen-dependent proliferation represents proliferation of LNCaP cells in response to R1881 compared to basal levels.
PC3 and LNCaP cells were plated in 96-well plates in respective media plus 0.5% FBS. […] Cell viability was measured using alamarBlue Cell Viability Assay (Invitrogen) following the manufacturer's protocol.

[3] = test system: LNCaP xenografts; test: LNCaP xenograft tumor volume in castrated NOD-SCID mice; type: in vivo
Description: Male NOD-SCID mice bearing subcutaneous tumors were castrated when tumor volume was approximately 100 mm3.
Tumors were measured using caliphers and the volume calculated by application of the formula (L×W×H)*0.5236.
Animals bearing LNCaP xenografts were dosed daily by oral gavage with 55.23 mg/kg body weight of Compound 7c or CMC/10% DMSO/Tween-20 vehicle control.
Tumors were measured using caliphers and the volume calculated by application of the formula (L×W×H)*0.5236Male

[4] = LNCaP cells transfected with PSA-luciferase plasmid, R1881 1 nM, 48 h, data of FIG. 9, read-out: IC50 (μM + Standard Deviation)
[5] = PSA-luc, mean, read-out: PSA-luc IC50s MEAN

| IC50 [1, 4] [µM] | IC50 [1, 5] [µM] | SMILES | further results |
| --- | --- | --- | --- |
| 9.8 |  | COC[C@H](O)COc1ccc(C(C)(C)c2ccc(OC[C@H](O)CCl)cc2)cc1 [Compound B, reference compound] |  |
|  | 15.3 | CC(=O)OC[C@H](COc1ccc(C(C)(C)c2ccc(OC[C@H](O)CCl)cc2)cc1)OC(C)=O [Compound 4c, (S)-3-(4-(2-(4-((S)-3-chloro-2-hydroxypropoxy)phenyl)propan-2-yl)phenoxy)propane-1,2-diyl diacetate] |  |
|  | 26 | CC(=O)OC[C@H](COc1ccc(C(C)(C)c2ccc(OC[C@H]3CO3)cc2)cc1)OC(C)=O [Example 11, (S)-3-(4-(2-(4-((R)-oxiran-2-ylmethoxy)phenyl)propan-2-yl)phenoxy)propane-1,2-diyl diacetate] |  |
| 25.6 |  | CC(=O)OC[C@@H](O)COc1ccc(C(C)(C)c2ccc(OC[C@H](O)CCl)cc2)cc1 [Compound 1c] |  |
|  | 60.2 | CC(C)(c1ccc(OC[C@@H](CCl)OC(=O)CCC(=O)O)cc1)c1ccc(OC[C@@H](COC(=O)CCC(=O)O)OC(=O)CCC(=O)O)cc1 [Example 13, (S)-3-(4-(2-(4-((S)-3-chloro-2-hydroxypropoxy)phenyl)propan-2-yl)phenoxy)propane-1,2-diol trisuccinate] |  |
|  | 12.1 | CC(C)(c1ccc(OC[C@H](O)CCl)cc1)c1ccc(OC[C@H](O)COC(=O)CN)cc1 [(S)-3-(4-(2-(4-((S)-3-chloro-2-hydroxypropoxy)phenyl)propan-2-yl)phenoxy)-2-hydroxypropyl 2-aminoacetate] |  |
| 11.6 |  | CC(=O)O[C@H](CCl)COc1ccc(C(C)(C)c2ccc(OC[C@H](O)CO)cc2)cc1 [Compound 3c] |  |

| SMILES | IC50 [1, 4] [µM] | IC50 [1, 5] [µM] | further results |
| --- | --- | --- | --- |
| CC(=O)OC[C@H](COc1ccc(C(C)(C)c2ccc(OC[C@@H](CCl)OC(C)=O)cc2)cc1)OC(C)=O [Compound 7c, (S)-3-(4-(2-(4-((S)-2-acetoxy-3-chloropropoxy)phenyl)propan-2-yl)phenoxy)propane-1,2-diyl diacetate] | 8.81 |  | potency in proliferation assay relative to active compound (compound A) [2]: twice as potent; tumor volume ([3]; Example 25, daily oral gavage, 10% DMSO/corn oil vehicle control, FIG. 11): effective at reducing tumor volume; tumor volume reduction compared with compound A ([3]; Example 25, daily oral gavage, FIG. 11): more effective than its active compound; tumor volume ([3]; Example 26, 55.23 mg/kg body weight daily by oral gavage, CMC/10% DMSO/Tween-20 vehicle control, FIG. 12): effective at reducing tumor volume |
| COC[C@@H](COc1ccc(C(C)(C)c2ccc(OC[C@@H](CCl)OC(C)=O)cc2)cc1)OC(C)=O [Example 21, (S)-1-(4-(2-(4-((S)-2-acetoxy-3-chloropropoxy)phenyl)propan-2-yl)phenoxy)-3-methoxypropan-2-yl acetate] | 8.07 |  |  |
